Species: Rattus norvegicus
Assay: Open TG-GATES - Regimen: Single
Assay type: toxicity, organism-based, Sprague-Dawley
Parameters: regimen Single, gender Male, age 6 weeks
Conditions: in vivo, po, 100 mg/kg, route gavage, dose level Middle; for APTT / Bas / Eos / Fbg / Hb / Ht / Lym / MCH / MCHC / MCV / Mono / Neu / PT / Plat / RBC / Ret / WBC: tissue Blood; for KIDNEY_L / KIDNEY_R / KIDNEY_TOTAL: tissue Kidney; for LIVER: tissue Liver; for ALP / ALT / AST / BUN / CRE / Ca / Cl / DBIL / GLC / IP / K / LDH / Na / PL / RALB / TBIL / TC / TG / TP / gamma-GTP: tissue Plasma

Compound: COc1cc([C@@H]2c3cc4c(cc3[C@@H](O[C@@H]3O[C@@H]5CO[C@@H](C)O[C@H]5[C@H](O)[C@H]3O)[C@H]3COC(=O)[C@H]23)OCO4)cc(OC)c1O [ETOPOSIDE]
- TERMINAL_BW (3 h): 196.5 g
- APTT (3 h): 17 s
- Bas (3 h): 0%
- Eos (3 h): 1%
- Fbg (3 h): 184.4 mg/dL
- Hb (3 h): 13.6 g/dL
- Ht (3 h): 40.5%
- Lym (3 h): 78.6%
- MCH (3 h): 21.7 pg
- MCHC (3 h): 33.7%
- MCV (3 h): 64.4 fL
- Mono (3 h): 8.2%
- Neu (3 h): 12.2%
- PT (3 h): 12.3 s
- Plat (3 h): 118 x10_4/uL
- RBC (3 h): 628.4 x10_4/ul
- Ret (3 h): 9.8%
- WBC (3 h): 104.2 x10_2/uL
- KIDNEY_L (3 h): 0.9 g
- KIDNEY_R (3 h): 0.9 g
- KIDNEY_TOTAL (3 h): 1.8 g
- LIVER (3 h): 9.1 g
- ALP (3 h): 1074.8 IU/L
- ALT (3 h): 36 IU/L
- AST (3 h): 69.4 IU/L
- BUN (3 h): 13.8 mg/dL
- CRE (3 h): 0.5 mg/dL
- Ca (3 h): 10.6 mg/dL
- Cl (3 h): 103.8 meq/L
- DBIL (3 h): 0.026 mg/dL
- GLC (3 h): 193 mg/dL
- IP (3 h): 9.6 mg/dL
- K (3 h): 4.3 meq/L
- LDH (3 h): 111 IU/L
- Na (3 h): 141.6 meq/L
- PL (3 h): 137.2 mg/dL
- RALB (3 h): 3.4 g/dL
- TBIL (3 h): 0.3 mg/dL
- TC (3 h): 78.6 mg/dL
- TG (3 h): 45.4 mg/dL
- TP (3 h): 5.2 g/dL
- gamma-GTP (3 h): 1.4 IU/L
- TERMINAL_BW (6 h): 198.5 g
- APTT (6 h): 17.4 s
- Bas (6 h): 0%
- Eos (6 h): 1%
- Fbg (6 h): 198 mg/dL
- Hb (6 h): 13.6 g/dL
- Ht (6 h): 40.5%
- Lym (6 h): 76.6%
- MCH (6 h): 21.9 pg
- MCHC (6 h): 33.7%
- MCV (6 h): 65.1 fL
- Mono (6 h): 9.8%
- Neu (6 h): 13%
- PT (6 h): 11.9 s
- Plat (6 h): 110.3 x10_4/uL
- RBC (6 h): 622 x10_4/ul
- Ret (6 h): 10%
- WBC (6 h): 69.6 x10_2/uL
- KIDNEY_L (6 h): 0.9 g
- KIDNEY_R (6 h): 0.9 g
- KIDNEY_TOTAL (6 h): 1.9 g
- LIVER (6 h): 8.9 g
- ALP (6 h): 933.8 IU/L
- ALT (6 h): 29.4 IU/L
- AST (6 h): 62.2 IU/L
- BUN (6 h): 11.4 mg/dL
- CRE (6 h): 0.6 mg/dL
- Ca (6 h): 10.7 mg/dL
- Cl (6 h): 105 meq/L
- DBIL (6 h): 0.02 mg/dL
- GLC (6 h): 196.2 mg/dL
- IP (6 h): 10.5 mg/dL
- K (6 h): 4.7 meq/L
- LDH (6 h): 98.4 IU/L
- Na (6 h): 141.6 meq/L
- PL (6 h): 137.8 mg/dL
- RALB (6 h): 3.3 g/dL
- TBIL (6 h): 0.4 mg/dL
- TC (6 h): 78 mg/dL
- TG (6 h): 40.2 mg/dL
- TP (6 h): 5.3 g/dL
- gamma-GTP (6 h): 0.8 IU/L
- TERMINAL_BW (9 h): 197 g
- APTT (9 h): 16.9 s
- Bas (9 h): 0%
- Eos (9 h): 1%
- Fbg (9 h): 206.8 mg/dL
- Hb (9 h): 13 g/dL
- Ht (9 h): 38.8%
- Lym (9 h): 77.8%
- MCH (9 h): 21.5 pg
- MCHC (9 h): 33.5%
- MCV (9 h): 64.3 fL
- Mono (9 h): 6.8%
- Neu (9 h): 14.6%
- PT (9 h): 11.2 s
- Plat (9 h): 109 x10_4/uL
- RBC (9 h): 604.2 x10_4/ul
- Ret (9 h): 8.2%
- WBC (9 h): 72.5 x10_2/uL
- KIDNEY_L (9 h): 0.9 g
- KIDNEY_R (9 h): 1 g
- KIDNEY_TOTAL (9 h): 1.9 g
- LIVER (9 h): 8.5 g
- ALP (9 h): 842.6 IU/L
- ALT (9 h): 33.4 IU/L
- AST (9 h): 63.6 IU/L
- BUN (9 h): 12.8 mg/dL
- CRE (9 h): 0.5 mg/dL
- Ca (9 h): 10.4 mg/dL
- Cl (9 h): 105.8 meq/L
- DBIL (9 h): 0.048 mg/dL
- GLC (9 h): 199 mg/dL
- IP (9 h): 10.6 mg/dL
- K (9 h): 4.6 meq/L
- LDH (9 h): 78.4 IU/L
- Na (9 h): 143.2 meq/L
- PL (9 h): 114 mg/dL
- RALB (9 h): 3.5 g/dL
- TBIL (9 h): 0.4 mg/dL
- TC (9 h): 67.6 mg/dL
- TG (9 h): 27.6 mg/dL
- TP (9 h): 5.4 g/dL
- gamma-GTP (9 h): 1.6 IU/L
- TERMINAL_BW (24 h): 207.9 g
- APTT (24 h): 16 s
- Bas (24 h): 0%
- Eos (24 h): 1%
- Fbg (24 h): 206 mg/dL
- Hb (24 h): 13.4 g/dL
- Ht (24 h): 39.8%
- Lym (24 h): 86.4%
- MCH (24 h): 21.4 pg
- MCHC (24 h): 33.7%
- MCV (24 h): 63.4 fL
- Mono (24 h): 4.8%
- Neu (24 h): 8%
- PT (24 h): 11.7 s
- Plat (24 h): 113.3 x10_4/uL
- RBC (24 h): 628.4 x10_4/ul
- Ret (24 h): 7.4%
- WBC (24 h): 74.6 x10_2/uL
- KIDNEY_L (24 h): 1 g
- KIDNEY_R (24 h): 1 g
- KIDNEY_TOTAL (24 h): 2 g
- LIVER (24 h): 9.3 g
- ALP (24 h): 999.2 IU/L
- ALT (24 h): 30.4 IU/L
- AST (24 h): 64.8 IU/L
- CRE (24 h): 0.5 mg/dL
- Ca (24 h): 10.9 mg/dL
- Cl (24 h): 104.8 meq/L
- DBIL (24 h): 0.028 mg/dL
- GLC (24 h): 192.4 mg/dL
- IP (24 h): 9.1 mg/dL
- K (24 h): 5 meq/L
- LDH (24 h): 94.6 IU/L
- Na (24 h): 140.6 meq/L
- PL (24 h): 134.4 mg/dL
- RALB (24 h): 3.6 g/dL
- TBIL (24 h): 0.3 mg/dL
- TC (24 h): 78.2 mg/dL
- TG (24 h): 60 mg/dL
- TP (24 h): 5.5 g/dL
- gamma-GTP (24 h): 1.2 IU/L
